Test results from patent US20260139007A1, “EPHA4 ANTAGONISTS AND USES THEREOF” (SANFORD BURNHAM PREBYS MEDICAL DISCOVERY INSTITUTE, priority 2023, published 2026).
Values joined by “and” are separate entries in the source; they are usually repeats but may differ in a detail not shown here. Equal entries are not always repeated. Where two headings read alike, the source gives them in different places. Bridge positions count the residues as written; N and C are the ends. Square brackets hold non-standard residues; d marks the D form. Peptide text beside a SMILES is read from it. * marks the point of attachment. Octanoyl = CCCCCCCC(=O)*; βAla = NCCC(=O)O

How the values were obtained:
EphA4 Fc [1] = assay: ELISA inhibition of ephrin-A5 AP binding to EphA4 Fc in the presence of HSA, BSA or methyl-β-cyclodextrin; settings: for IC50: read-out: IC50 ± SE (n) by ELISA with HSA or BSA; for effect of HSA on potency: presence vs absence of 40 mg/mL HSA, tested in parallel
Text: To determine whether albumin binding to the lipidated compounds affects their ability to bind EphA4, the effects of delipidated human serum albumin (HSA) on the inhibitory potency of some of the compounds were examined.

EphA4 Fc [2] = assay: ELISA measuring inhibition of ephrin-A5 AP binding to immobilized EphA4 Fc; design: species or system human or mouse
[3] = In vivo half-life: active compound remaining in mouse blood, deduced from apparent IC50 of plasma in the EphA4-ephrinA5 ELISA; settings: mouse; for blood concentration: 0.8 mg/mouse
Experimental: To examine the persistence of compounds in the blood circulation, an approach was devised to determine the concentration of compound in mouse blood by taking advantage of the ELISA measuring inhibition of EphA4-ephrinA5 interaction.
Lipidated compounds dissolved in DMSO were diluted in […] PBS (to a 5% final DMSO concentration) or in […] PBS supplemented with 20 or 40 mg/mL BSA or 6.5 mM methyl-β-cyclodextrin for intravenous or intraperitoneal injection. Neutral pH of the compound solution was verified before injection. PEGylated compounds were dissolved in […] PBS before intraperitoneal injection. Peptides were sterile filtered before administration. Blood from each mouse was collected at 3 different time points after compound injection, the first 2 times by retro-orbital bleeding and the third time by terminal cardiac bleeding under deep anesthesia. Red blood cells were removed by centrifugation from blood treated with heparin and the resulting plasma was frozen in aliquots.
For each time point, a dose-response curves by measuring inhibition of EphA4-ephrinA5 binding at different plasma dilutions was obtained.

EphA4 = molecular target: T1, EphA4 (Homo sapiens, UniProt P54764); assay: EphA4 Y596 phosphorylation (activation) in cells stimulated with ephrinA5-Fc; assay type: cell-based; settings: EphA4 tyrosine phosphorylation in cells stimulated with ephrin-A5
T1 construct: expressed in transfected cells; host or cells: HEK-EphA4 cells (immortalized cells stably transfected)
T1 sequence (P54764 20-986, species assumed): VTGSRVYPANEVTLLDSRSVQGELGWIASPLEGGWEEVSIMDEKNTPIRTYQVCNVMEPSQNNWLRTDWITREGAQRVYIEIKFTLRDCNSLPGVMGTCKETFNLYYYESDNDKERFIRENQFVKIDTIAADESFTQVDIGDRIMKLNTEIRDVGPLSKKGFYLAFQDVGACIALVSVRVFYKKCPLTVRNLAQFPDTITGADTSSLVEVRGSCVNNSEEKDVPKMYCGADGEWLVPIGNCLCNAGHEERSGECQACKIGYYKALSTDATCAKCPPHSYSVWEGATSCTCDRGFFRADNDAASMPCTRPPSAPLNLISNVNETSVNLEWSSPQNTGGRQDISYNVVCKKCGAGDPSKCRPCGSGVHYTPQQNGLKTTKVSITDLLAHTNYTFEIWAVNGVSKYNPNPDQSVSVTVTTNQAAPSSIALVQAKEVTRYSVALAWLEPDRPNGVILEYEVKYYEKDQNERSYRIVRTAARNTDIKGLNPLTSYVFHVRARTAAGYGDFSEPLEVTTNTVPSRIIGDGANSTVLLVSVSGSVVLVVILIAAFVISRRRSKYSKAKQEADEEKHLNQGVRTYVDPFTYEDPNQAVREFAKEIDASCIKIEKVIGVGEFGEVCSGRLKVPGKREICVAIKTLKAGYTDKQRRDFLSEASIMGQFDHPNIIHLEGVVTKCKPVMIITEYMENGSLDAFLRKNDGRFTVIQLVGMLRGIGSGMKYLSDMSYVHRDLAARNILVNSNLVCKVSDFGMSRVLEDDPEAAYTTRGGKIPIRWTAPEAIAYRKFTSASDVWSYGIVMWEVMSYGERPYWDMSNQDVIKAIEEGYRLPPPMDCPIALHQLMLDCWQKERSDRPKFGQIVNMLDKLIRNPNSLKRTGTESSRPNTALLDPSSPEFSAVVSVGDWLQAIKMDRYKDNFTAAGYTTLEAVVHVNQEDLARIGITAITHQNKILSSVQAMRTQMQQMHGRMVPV
Experimental: Immortalized cells stably transfected to express FLAG-tagged EphA4 were cultured at 37° C. in Dulbecco's Modified Eagle Medium (DMEM; #10-013-CV, Corning/Thermo Fisher Scientific) containing 10% fetal bovine serum (FBS) with 1% antibiotic-antimycotic solution (#30-004-Cl, Corning). To assess inhibition of EphA4 activation by compounds in cells, the cells were plated in 48-well plates.
For ELISAs, high binding capacity polystyrene 96-well plates were coated overnight at 4° C. with 1 μg/mL goat anti-FLAG antibody (#F3165, Sigma-Aldrich) in 50 μL/well borate buffer (0.1 M boric acid, 0.1 M Na borate, pH 8.7). […] OD450 was then measured.

[4] = Solubility of lipidated compounds; assay type: physicochemical
[5] = inhibition of ephrin-A5 AP binding to EphA4 Fc, averages of all experiments, read-out: IC50 ± SE (n) by ELISA
[6] = in vivo, iv, IV (intravenous administration), read-out: In vivo half-life (converted)
[7] = ELISA inhibition of EphA4-ephrin-A5 interaction, read-out: IC50 (approximate)
[8] = in vivo, ip, IP (intraperitoneal administration), read-out: In vivo half-life (converted)
[9] = ELISA inhibition of EphA4-ephrin-A5 interaction

`CCCCCCCCCCCC(=O)NCCCC[C@H](NC(=O)CNC(=O)CNC(=O)[C@@H]1CSSC[C@H](NC(=O)[C@H](Cc2ccc(O)cc2)NC(=O)[C@@H]2CCCN2C(=O)CCN)C(=O)N[C@@H](C(C)C)C(=O)N[C@@H](Cc2ccc(O)cc2)C(=O)N[C@@H](CCCNC(=N)N)C(=O)NCCC(=O)N[C@@H](CO)C(=O)N[C@@H](Cc2c[nH]c3ccccc23)C(=O)N[C@@H](CO)C(=O)N1)C(=O)NCC(N)=O` [Compound 12] gave an IC50 (EphA4 Fc [1]; 40 mg/mL delipidated HSA) of 920 ± 180 nM, an IC50 (EphA4 Fc [2]; [5]) of 240 ± 30 nM and an In vivo half-life ([3]; IV (intravenous administration)) of roughly 30 min. The half-life [3, 6] was 30 to 42 min.
For “[Cyc (4,12)] H2N-(βA)PYCVYR(βA)SWSC(Ahx)(Ahx)(Ahx)(Pra/mPEG30-triazole)-OH (XPYCVYRXSWSCXXX; non-natural residues; cyclised or stapled) [APY-d3-PEG4]”, the “inhibitory potency lower than that of APY-d3” value (EphA4) was 2-3 fold, the “t1/2 in mouse circulation” value ([3]; in vivo) was roughly 660 min and the blood concentration ([3]; in vivo, ip) was roughly 9000 nM. For the same molecule, the blood concentration ([3]; in vivo, ip, 20 h) was roughly 3000 nM and the blood concentration ([3]; in vivo, ip, 48 h) was roughly 400 nM.
With `CCCCCCCCCCCCCC(=O)N[C@@H](CCC(=O)N[C@@H](CCC(=O)NCCCC[C@H](NC(=O)CNC(=O)CNC(=O)[C@@H]1CSSC[C@H](NC(=O)[C@H](Cc2ccc(O)cc2)NC(=O)[C@@H]2CCCN2C(=O)CCN)C(=O)N[C@@H](C(C)C)C(=O)N[C@@H](Cc2ccc(O)cc2)C(=O)N[C@@H](CCCNC(=N)N)C(=O)NCCC(=O)N[C@@H](CO)C(=O)N[C@@H](Cc2c[nH]c3ccccc23)C(=O)N[C@@H](CO)C(=O)N1)C(=O)NCC(N)=O)C(=O)O)C(=O)O` [Compound 16] the “effect of methyl-β-cyclodextrin on inhibitory potency” value (EphA4 Fc [1]; 6.5 mM methyl-β-cyclodextrin vs buffer) was “does not affect the inhibitory potency”, the “effect of HSA on potency” value (EphA4 Fc [1]) was “dramatically decreased” and the IC50 (EphA4 Fc [1]; 40 mg/mL delipidated HSA) was 1370 nM. The “decrease in potency compared to compound 15” value (EphA4 Fc [2]; C14 myristoyl vs C12 lipid, γGluγGlu spacer) was 2-3 fold, the IC50 (EphA4 Fc [2]; [7]) was roughly 80 nM and the IC50 (EphA4 Fc [2]; [5]) was 77 ± 9 nM. It also gave a half-life [3, 8] of roughly 120 min.
For `CCCCCCCCCCCC(=O)N[C@@H](CCC(=O)N[C@@H](CCC(=O)NCCCC[C@H](NC(=O)CNC(=O)CNC(=O)[C@@H]1CSSC[C@H](NC(=O)[C@H](Cc2ccc(O)cc2)NC(=O)[C@@H]2CCCN2C(=O)CCN)C(=O)N[C@@H](C(C)C)C(=O)N[C@@H](Cc2ccc(O)cc2)C(=O)N[C@@H](CCCNC(=N)N)C(=O)NCCC(=O)N[C@@H](CO)C(=O)N[C@@H](Cc2c[nH]c3ccccc23)C(=O)N[C@@H](CO)C(=O)N1)C(=O)NCC(N)=O)C(=O)O)C(=O)O` [Compound 15], the “solubility” value [4] was “acceptable solubility”, the “effect of HSA on potency” value (EphA4 Fc [1]) was “dramatically decreased” and the “potency compared with APY-d3” value (EphA4 Fc [2]; [9]) was “comparable to APY-d3”. For the same molecule, the IC50 (EphA4 Fc [2]; [7]) was ~50 nM and ~30 nM, the half-life [3, 8] was 30 to 60 min and the half-life ([3]; in vivo, read-out: t1/2 in mouse circulation) was roughly 40 min.
For `CC[C@H](C)[C@H](NC(=O)[C@H](CC(C)C)NC(=O)[C@H](CCCNC(=N)N)NC(=O)[C@@H]1CSSC[C@H](NC(=O)[C@H](Cc2ccc(O)cc2)NC(=O)[C@@H]2CCCN2C(=O)CCN)C(=O)N[C@@H](C(C)C)C(=O)N[C@@H](Cc2ccc(O)cc2)C(=O)N[C@@H](CCCNC(=N)N)C(=O)NCCC(=O)N[C@@H](CO)C(=O)N[C@@H](Cc2c[nH]c3ccccc23)C(=O)N[C@@H](CO)C(=O)N1)C(=O)N[C@@H](CCC(=O)O)C(=O)N[C@@H](CC(=O)O)C(=O)N[C@H](C(=O)N[C@H]1CSSC[C@@H](C(=O)N[C@@H](CC(C)C)C(=O)N[C@@H](Cc2c[nH]c3ccccc23)C(=O)N[C@@H](CCC(=O)O)C(=O)N[C@@H](CC(=O)O)C(=O)N[C@@H](CC(=O)O)C(N)=O)NC(=O)CNC(=O)[C@H](Cc2c[nH]c3ccccc23)NC(=O)[C@H](CCCNC(=N)N)NC(=O)[C@@H]2CCCN2C(=O)[C@H](CC(C)C)NC1=O)[C@@H](C)CC` [Compound 21] (H-[βAla]PYCVYR[βAla]SWSCRLIEDICLPRWGCLWEDD-NH2; disulfide 4-12, 19-25), the “decrease in potency in the presence of bovine serum albumin” value (EphA4 Fc [1]; 20 mg/mL bovine serum albumin) was roughly 8 fold, the IC50 (EphA4 Fc [1]; 20 mg/ml BSA) was 130 ± 10 nM and the “potency compared with APY-d3” value (EphA4 Fc [2]; [9]) was “as potent as APY-d3”. For the same molecule, the IC50 (EphA4 Fc [2]; [5]) was 18 ± 4 nM and the half-life [3, 8] was roughly 40 min.
With `CCCCCCCC(=O)NCCCC[C@@H]1NC(=O)[C@H](Cc2ccc(O)cc2)NC(=O)[C@H](C(C)C)NC(=O)[C@@H](NC(=O)[C@H](Cc2ccc(O)cc2)NC(=O)[C@@H]2CCCN2C(=O)CCN)CSSC[C@@H](C(=O)NCC(=O)NCC(=O)N[C@@H](CCCNC(=N)N)C(=O)NCC(N)=O)NC(=O)[C@H](CO)NC(=O)[C@H](Cc2c[nH]c3ccccc23)NC(=O)[C@H](CO)NC(=O)CCNC1=O` [Compound 5] (H-[βAla]PYCVYK(Octanoyl)[βAla]SWSCGGRG-NH2; disulfide 4-12) the IC50 (EphA4 Fc [1]; 40 mg/mL delipidated HSA) was 75 ± 24 nM, the IC50 (EphA4 Fc [2]; [5]) was 26 ± 5 nM and the “% of compound remaining in the blood” value ([3]; 10 min after intravenous injection, in PBS with 5% DMSO) was 5%. For the same molecule, the half-life [3, 6] was less than 10 min.
